From patent USRE38460E1 (priority 1994, dated 2004)
Like-named read-outs stand apart in the source and are kept apart here.

How the values were obtained:
AChE = molecular target: T1, AChE (Rattus norvegicus, UniProt P37136); assay: biochemical
T1 construct: 0.1-0.2 ml of enzyme solution (red cell membrane or serum of rat) was added; from tissue; host or cells: rat tissue
T1 sequence (P37136 32-614): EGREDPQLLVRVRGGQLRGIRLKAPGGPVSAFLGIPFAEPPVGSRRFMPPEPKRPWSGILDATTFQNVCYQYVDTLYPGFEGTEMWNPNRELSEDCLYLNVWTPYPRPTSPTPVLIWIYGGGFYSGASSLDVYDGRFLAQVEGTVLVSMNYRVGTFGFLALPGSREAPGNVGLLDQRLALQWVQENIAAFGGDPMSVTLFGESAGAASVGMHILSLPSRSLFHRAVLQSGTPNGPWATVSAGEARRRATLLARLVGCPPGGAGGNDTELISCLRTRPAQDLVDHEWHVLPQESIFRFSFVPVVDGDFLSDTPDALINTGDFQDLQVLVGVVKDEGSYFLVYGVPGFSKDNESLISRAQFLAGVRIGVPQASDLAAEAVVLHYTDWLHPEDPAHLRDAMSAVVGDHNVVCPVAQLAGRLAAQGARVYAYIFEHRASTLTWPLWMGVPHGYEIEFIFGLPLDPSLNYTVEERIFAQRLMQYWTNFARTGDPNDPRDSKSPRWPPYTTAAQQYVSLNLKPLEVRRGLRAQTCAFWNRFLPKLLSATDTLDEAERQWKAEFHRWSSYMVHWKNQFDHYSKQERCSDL
Procedure: (§1) In the present invention a calorimetric method reported by Ellman was used to determine the effect of inhibition of the pharmaceutical on enzyme activity. The total volume of the solution of the enzyme activity reaction was 4 ml, which contained 0.3 mmol/L of acetylcholin iodide (acetylcholinesterase substrate), or 0.4 mmol/L of butyrylcholin iodide (butyrylcholinesterase substrate), 1 ml of the buffer solution of 25 mmol/L of phosphate of pH 7.4, and water to make up to 4 ml (including the amount of the enzyme solution and the testing reagent added afterwards). After the solution was kept at 37° C. for 5 minutes, 0.1-0.2 ml of enzyme solution (red cell membrane or serum of rat) was added, or 0.1-0.3 ml of the testing reagent was added at the same time. The solution was kept at the same temperature for another 8 minutes. Then 1 ml of 3% of sodium lauryl sulphate was added to terminate the reaction. Finally 1 ml of 0.2% 5,5-dithio-2,2′-nitro-benzoic acid solution was added for developing.

BuChE = molecular target: T2, BuChE (Rattus norvegicus, UniProt Q9JKC1); assay: In-vitro anticholinesterase effect (Table 6), BuChE; assay type: biochemical; conditions: for inhibition activity BuChE at 10(μM): Table 6; for inhibition at 10 µM: read-out: inhibition activity BuChE at 10(μM)
T2 construct: from tissue; host or cells: rat serum
Procedure: as §1

[1] = molecular target: T3, butyrylcholinesterase (BuChE) (Rattus norvegicus, UniProt Q9JKC1); assay: In-vitro anticholinesterase effect, colorimetric method (Ellman), BuChE from rat's serum; assay type: biochemical
T3 construct: from tissue; host or cells: rat serum
Procedure: as §1
(§2) AChE taken from rat's red cell membrane. BuChE taken from rat's serum.
(§3) AChE taken from homogenate of rat's cortex. BuChE taken from rat's serum.

[2] = molecular target: T4, acetylcholinesterase (AChE) (Rattus norvegicus, UniProt P37136); assay: biochemical; assay type: biochemical; conditions: for IC50 ratio BuChE/AChE: cortex AChE, serum BuChE
T4 construct: from tissue; host or cells: homogenate of rat cortex
T4 sequence (P37136 32-614): T1 sequence (P37136 32-614)
Procedure: as §1, §3

[3] = molecular target: T5, acetylcholinesterase (AChE) (Rattus norvegicus, UniProt P37136); assay: biochemical; assay type: biochemical
T5 construct: from tissue; host or cells: rat red cell membrane
Procedure: as §1, §2
T5 sequence (P37136 other isoform, or with tags, fused parts or gaps): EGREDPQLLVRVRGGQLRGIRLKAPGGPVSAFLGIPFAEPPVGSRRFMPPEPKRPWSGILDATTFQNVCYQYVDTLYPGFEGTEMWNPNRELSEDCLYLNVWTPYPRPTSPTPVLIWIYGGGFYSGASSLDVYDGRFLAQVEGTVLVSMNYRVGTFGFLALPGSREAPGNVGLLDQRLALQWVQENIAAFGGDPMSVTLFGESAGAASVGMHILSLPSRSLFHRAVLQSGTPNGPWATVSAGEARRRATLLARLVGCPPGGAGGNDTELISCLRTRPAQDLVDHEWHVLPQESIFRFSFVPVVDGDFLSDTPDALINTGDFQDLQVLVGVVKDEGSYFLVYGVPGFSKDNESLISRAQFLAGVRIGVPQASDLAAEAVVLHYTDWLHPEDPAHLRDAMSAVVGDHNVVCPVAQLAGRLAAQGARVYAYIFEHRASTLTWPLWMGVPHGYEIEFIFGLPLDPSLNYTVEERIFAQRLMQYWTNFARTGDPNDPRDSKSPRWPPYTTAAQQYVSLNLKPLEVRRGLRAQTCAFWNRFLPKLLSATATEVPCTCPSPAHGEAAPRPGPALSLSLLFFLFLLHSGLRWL

[4] = test system: memory impairment caused by scopolamine; assay: 8-arm maze spatial distinction operation of rat, memory impairment caused by scopolamine; assay type: in vivo; conditions: rats, 8-arm maze; scopolamine + huperzine A 0.15 + 0.25 mg/kg ip + po
[5] = Critical toxicity on mice (Bliss method); assay type: in vivo; conditions: mouse, in vivo, po, mice, p.o., Bliss method, mortality within 7 days
Procedure: Test of each pharmaceutical was carried out using 4-5 dosage group.
Mortality within 7 days was observed.

[6] = read-out: concentration for inhibition of 50% of enzyme activity (IC50) butyrylcholinesterase (BuChE), Table 2, BuChE taken from rat's serum
[7] = read-out: concentration for inhibition of 50% of enzyme activity (IC50) acetylcholinesterase (AChE), Table 2, AChE taken from homogenate of rat's cortex
[8] = Table 6, read-out: inhibition activity AChE IC50
[9] = Table 2, AChE taken from homogenate of rat's cortex
[10] = Table 1, AChE taken from rat's red cell membrane
[11] = read-out: concentration for inhibition of 50% of enzyme activity (IC50) butyrylcholinesterase (BuChE), Table 1, BuChE taken from rat's serum
[12] = read-out: concentration for inhibition of 50% of enzyme activity (IC50) acetylcholinesterase (AChE)
[13] = read-out: inhibition activity AChE IC50

T3 sequence (Q9JKC1 24-597): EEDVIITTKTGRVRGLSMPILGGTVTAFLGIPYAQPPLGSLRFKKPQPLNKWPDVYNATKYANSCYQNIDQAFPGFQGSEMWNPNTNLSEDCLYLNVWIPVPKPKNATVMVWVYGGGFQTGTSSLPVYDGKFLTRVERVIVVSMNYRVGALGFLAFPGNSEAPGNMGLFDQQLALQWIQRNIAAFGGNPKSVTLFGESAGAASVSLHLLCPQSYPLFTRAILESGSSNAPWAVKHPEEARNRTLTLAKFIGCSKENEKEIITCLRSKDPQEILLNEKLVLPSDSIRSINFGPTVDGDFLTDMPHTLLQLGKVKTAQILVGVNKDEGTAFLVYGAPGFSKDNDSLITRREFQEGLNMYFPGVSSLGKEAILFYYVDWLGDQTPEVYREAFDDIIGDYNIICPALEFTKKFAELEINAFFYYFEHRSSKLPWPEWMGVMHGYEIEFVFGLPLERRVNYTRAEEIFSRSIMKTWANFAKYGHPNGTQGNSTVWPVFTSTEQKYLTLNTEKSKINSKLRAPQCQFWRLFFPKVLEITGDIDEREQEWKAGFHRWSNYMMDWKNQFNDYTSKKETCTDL
T2 sequence (Q9JKC1 24-597): as above

CC=C1C2C=C(C)CC1(NC(=O)c1ccccc1C(=O)O)c1ccc(=O)[nH]c1C2 (stereo not drawn) [derivative No. 15]
inhibition activity AChE at 1(μM) (AChE): 60.8 | inhibition activity BuChE at 10(μM) (BuChE): 0 | IC50 [1, 6]: 502000 nM | IC50 ratio BuChE/AChE ([2]; Table 2): 795.6 | IC50 [2, 7]: 631 nM

CC=C1C2C=C(C)CC1(N=CC=Cc1ccccc1)c1ccc(=O)[nH]c1C2 (stereo not drawn) [derivative No. 27]
BuChE/AChE (AChE; Table 6): >500 | inhibition at 1 µM (AChE; Table 6): 84% | IC50 (AChE; [8]): 110 nM | inhibition at 10 µM (BuChE): 3.3% | IC50 [1]: 100000 nM | IC50 [2]: 126 nM | IC50 ratio BuChE/AChE ([2]; Table 2): 794.3

CC=C1C2C=C(C)CC1(N=Cc1ccc(OC)c(OC)c1O)c1ccc(=O)[nH]c1C2 (stereo not drawn) [derivative No. 22]
inhibition at 1 µM (AChE; Table 6): 68.7% | inhibition at 10 µM (BuChE): 0% | IC50 [1]: 126000 nM | IC50 [2, 9]: 126 nM | IC50 ratio BuChE/AChE ([2]; Table 2): 1000.0

CC=C1C2C=C(C)CC1(NC(=O)Cc1ccccc1)c1ccc(=O)[nH]c1C2 (stereo not drawn) [derivative No. 2]
IC50 [1]: > 347000 nM | IC50 [3, 10]: 9050 nM

CC=C1C2C=C(C)CC1(N=Cc1ccc(O)c(O)c1O)c1ccc(=O)[nH]c1C2 (stereo not drawn) [derivative No. 25]
inhibition at 1 µM (AChE; Table 6): 62% | inhibition at 10 µM (BuChE): 0% | IC50 [1]: 251000 nM | IC50 [2, 9]: 159 nM | IC50 ratio BuChE/AChE ([2]; Table 2): 1584.9

CC=C1C2C=C(C)CC1(N=Cc1cccc(OC)c1O)c1ccc(=O)[nH]c1C2 (stereo not drawn) [derivative No. 26]
BuChE/AChE (AChE; Table 6): >300 | inhibition at 1 µM (AChE; Table 6): 79.7% | IC50 (AChE; [8]): 180 nM | inhibition at 10 µM (BuChE): 1.1%

CC=C1C2C=C(C)CC1(N=Cc1ccccc1O)c1ccc(=O)[nH]c1C2 (stereo not drawn) [derivative No. 20]
IC50 (AChE): 94 nM | BuChE/AChE (AChE; Table 6): >500 | inhibition at 1 µM (AChE; Table 6): 83.7% | inhibition at 10 µM (BuChE): 0% | IC50 [1]: 126000 nM | IC50 [2, 9]: 178 nM | IC50 ratio BuChE/AChE ([2]; Table 2): 708.1

C/C=C1\C2C=C(C)C[C@]1(N)c1ccc(=O)[nH]c1C2 [huperzine A, (5R, 9R, 11E)-5-amino-11-ethylidene-5,6,9,10-tetrahydro-7-methyl-5,9-methylene cycloocta [b] pyridyl-2(1H)-one, reference compound]
No. of mistakes in operation before reaching the standard, reference memory (X + SEM) [4]: 0.57 | No. of mistakes in operation before reaching the standard, working memory (X + SEM) [4]: 0.86 | LD50 at 7 days ([5]; first of two columns headed LD50, read-out: LD50 (first column) (95% confidence limit)): 3.1 mg/kg | LD50 at 7 days ([5]; second of two columns headed LD50, read-out: LD50 (second column) (95% confidence limit)): 4.6 mg/kg

CC=C1C2C=C(C)CC1(NC(=O)c1ccccc1)c1ccc(=O)[nH]c1C2 (stereo not drawn) [derivative No. 11]
IC50 [1, 11]: 363000 nM | IC50 [3, 12]: > 14400 nM

CC=C1C2C=C(C)CC1(NC(=O)/C=C/CC(=O)O)c1ccc(=O)[nH]c1C2 (stereo not drawn) [derivative No. 16]
BuChE/AChE (AChE): >200 | inhibition activity AChE at 1(μM) (AChE): 80.7 | IC50 (AChE; [13]): 210 nM | inhibition activity BuChE at 10(μM) (BuChE): 1.8

CNC(=O)Oc1ccc2c(c1)[C@]1(C)CCN(C)[C@@H]1N2C [Physostigmine, reference compound]
IC50 [1]: 1260 nM

CC=C1C2C=C(C)CC1(NC(=O)C1=CN(C)CC=C1)c1ccc(=O)[nH]c1C2 (stereo not drawn) [derivative No. 6]
IC50 [1, 11]: > 309000 nM | IC50 ([3]; read-out: concentration for inhibition of 50% of enzyme activity (IC50) acetylcholinesterase (AChE), Table 1, AChE taken from rat's red cell membrane): > 12300 nM

CC=C1C2C=C(C)CC1(NC(=O)c1ccccn1)c1ccc(=O)[nH]c1C2 (stereo not drawn) [derivative No. 12]
IC50 [1, 6]: 251000 nM | IC50 ratio BuChE/AChE ([2]; Table 2): 1995.2 | IC50 [2, 7]: 126 nM

CC=C1C2C=C(C)CC1(NC(=O)CCC(=O)O)c1ccc(=O)[nH]c1C2 (stereo not drawn) [derivative No. 1]
IC50 [1, 11]: 380000 nM | IC50 [1, 6]: 380000 nM | inhibition effect on butyrylcholinesterase (pseudo enzyme) compared with huperzine A ([1]; see Tables 1, 2 and 6): weaker inhibition effect | IC50 ratio BuChE/AChE [3]: 1092.5 | inhibition effect on acetylcholinesterase (in words) [3]: remarkable inhibition effect | inhibition effect on acetylcholinesterase compared with huperzine A [3]: slightly weaker | inhibition effect on acetylcholinesterase compared with physostigmine and galanthamine [3]: apparently stronger | selective inhibition effect on acetylcholinesterase compared with huperzine A [3]: greater selective inhibition effect | IC50 [3, 12]: 348 nM | IC50 ratio BuChE/AChE ([2]; Table 2): 1094.1 | IC50 [2, 7]: 348 nM

COc1cc2c(cc1OC)C(=O)C(CC1CCN(Cc3ccccc3)CC1)C2 (stereo not drawn) [E-2020, reference compound]
inhibition at 10 µM (BuChE): 2.9%

CC=C1C2C=C(C)CC1(NC(=O)c1cccnc1)c1ccc(=O)[nH]c1C2 (stereo not drawn) [derivative No. 4]
IC50 [1]: 58900 nM | IC50 [3, 10]: > 12900 nM

CC=C1C2C=C(C)CC1(N=Cc1cc(OC)c(OC)c(OC)c1)c1ccc(=O)[nH]c1C2 (stereo not drawn) [derivative No. 21]
inhibition at 1 µM (AChE; Table 6): 84.9% | inhibition at 10 µM (BuChE): 0% | IC50 [1]: 158000 nM | IC50 [2, 9]: 141 nM

CC=C1C2C=C(C)CC1(N=Cc1cccc(O)c1O)c1ccc(=O)[nH]c1C2 (stereo not drawn) [derivative No. 24]
inhibition at 1 µM (AChE; Table 6): 78.3% | IC50 (AChE; [8]): 280 nM | inhibition at 10 µM (BuChE): 0% | IC50 [2, 9]: 100 nM

CC=C1C2C=C(C)CC1(NC(=O)c1cccnc1)c1ccc(=O)n(C(=O)c3cccnc3)c1C2 (stereo not drawn) [derivative No. 5]
IC50 [1]: > 275000 nM | IC50 [3, 10]: > 11000 nM

CC=C1C2C=C(C)CC1(N=Cc1ccc(O)cc1O)c1ccc(=O)[nH]c1C2 (stereo not drawn) [derivative No. 23]
inhibition at 1 µM (AChE; Table 6): 34.4% | inhibition at 10 µM (BuChE): 0% | IC50 [1]: 200000 nM | IC50 [2, 9]: 251 nM | IC50 ratio BuChE/AChE ([2]; Table 2): 794.2

CC=C1C2C=C(C)CC1(NC(=O)C(C)C)c1ccc(=O)[nH]c1C2 (stereo not drawn) [derivative No. 10]
IC50 [1, 11]: 110000 nM | IC50 [3, 12]: > 15800 nM

CC=C1C2C=C(C)CC1(N=Cc1cccnc1)c1ccc(=O)[nH]c1C2 (stereo not drawn) [derivative No. 44]
BuChE/AChE (AChE; Table 6): >500 | inhibition at 1 µM (AChE; Table 6): 85.6% | IC50 (AChE; [8]): 110 nM | inhibition at 10 µM (BuChE): 1.8%

CC=C1C2C=C(C)CC1(NC(=O)c1ccncc1)c1ccc(=O)[nH]c1C2 (stereo not drawn) [derivative No. 14]
BuChE/AChE (AChE): >100 | inhibition activity AChE at 1(μM) (AChE): 76.4 | IC50 (AChE; [13]): 360 nM | inhibition activity BuChE at 10(μM) (BuChE): 2.5
